The source of these data is US8835447B2, “Method for treating androgen receptor positive cancers” (priority 2009, dated 2014).

The test system of one data set is NIH Swiss mice. Put plainly: Compound safety in mice, dose escalation. Format: in vivo. As to conditions: three i.p. injections 20x, 50x, 100xIC50 in 3 day intervals. As for the experimental part: Testing of compound safety in mice was done according to an IACUC-approved protocol. The experiment was performed using outbred 8 week old NIH Swiss male mice from Harlan (Indianapolis, Ind.), 4 mice per group. IC50 concentrations were used to calculate in vivo doses based on mouse weight (IC50 in vivo dose equivalent in mg/kg=IC50 in mg/ml×1000, based on the assumption that 1 g of mouse tissues have an approximate volume of 1 ml). The compounds were injected intraperitoneally (i.p.) in 25% DMSO-75% PBS starting from 20×IC50 equivalent of in vitro cytotoxic dose of compounds. […]. The control group of mice received 3 injections of 25% DMSO-75% PBS in intervals of three days. Blood biochemistry analysis was performed by BioReliance (Rockville, Md.).
Five hit compounds, representing both the ARTIS and ARTIK categories (c6, c11, c17, c52 and c85), were selected for in vivo tests based on all of the previous assays. Compound c5 was rejected due to very low microsomal stability (<5% after 1 hour incubation with rat microsomes). The toxicity of the compounds was evaluated in a dose escalation assay in which male NIH Swiss mice (n=4) received three sequential intraperitoneal (i.p.) injections of each compound delivered in 3 day intervals. […]. On the day after the last injection, half of the mice in each group were sacrificed for gross pathology examination and collection of blood for serum biochemistry assays, which include total protein, glucose, bilirubin, and creatinine levels, activity of liver enzymes, and ion concentrations. The remaining mice were sacrificed and evaluated similarly 7 days after the last compound injection. […] A minor decrease in serum glucose concentration (70-80% of control) was observed on the day after the last compound injection in almost all mice, but glucose levels were normal a week later (data not shown). Low serum glucose level might reflect of a weak transient GR-inhibitory effect of the selected compounds.

For data set [1], the system named is HT1080, HeLa and DU145 cells. The data set can be described thus: Colony formation assay, non-PCa and AR-negative PCa cells. In kind it is cell-based, human. As to conditions: 10 μM, 7 days. Here is the method: Cell Colony Assay: Cells were plated in 24-well plates at a density allowing 6-7 days of exponential growth before confluency. Medium and compound was replaced every 48 hours to minimize the effect of potential compound instability. After 7 days of incubation in the presence of compound, cells were fixed and stained with methylene blue, followed by extraction of the stain with 1% SDS and spectrophotometry at 650 nm. Each assay was run in triplicate and the difference between control and compound-treated wells was determined using Student's t-test.
This Example provides a description of the effect of the selected compounds on the growth of PCa cells. To test the toxicity of the identified AR inhibitors towards cells of different origins, we performed colony formation assays using a single dose of each compound (10 μM) on several PCa (LNCaP, C4-2, CWR22R and DU145) and two non-PCa (HT1080 and HeLa) cell lines (FIG. 2A). […] These compounds were not weaker inhibitors of AR transcriptional activity in CWR22R or C4-2 cells than compounds that inhibited growth of the cells.

In the next data set the test system is CWR22R tumors. Put plainly: CWR22R xenograft model in nude mice. In kind it is in vivo, mouse. As to conditions: for CWR22R tumor growth: five daily i.v. injections, c52 at 18 mg/kg/day. From the text: (§1) FIGS. 6A and 6B provide data showing anti-tumor activity of the selected hits in mouse models of androgen-independent PCa. FIG. 6A provides a graphical representation of data obtained from i.p. injection of the listed compounds or DMSO vehicle into nude mice carrying subcutaneous (s.c.) C4-2 tumors. Six daily injections were given starting when tumors were around 100 mm3 in size. There were 4-5 mice per group with two tumors per mouse. Asterisks (*) and number signs (#) are placed under the means of measurement in the c6 and c11 groups respectively which are statistically different from the control group by ANOVA test (>99%) B. C52 (9 mg/kg or 18 mg/kg) or DMSO vehicle was injected into the tail vein of nude mice carrying s.c. CWR22R tumors. Five daily injections were given starting when tumors were around 40 mm3 in size. There were 10 mice per group with one tumor per mouse. Asterisks (*) are placed under the means of measurement which are statistically different from the control group by ANOVA test (>99%). Error bars in both FIGS. 6A and B—standard deviation between the size of tumors within a given treatment group.
(§2) Testing of the anti-tumor effect of compounds in mice was done according to an IACUC-approved protocol in 8 week old male athymic nude mice from Harlan (Indianapolis, Ind.). For the C4-2 xenograft model, 10^6 C4-2 cells were injected subcutaneously (s.c.) in 2 sites of each mouse in 50% matrigel (BD Biosciences, Bradford, Mass.) in PBS. Upon development of visible tumors, they were measured using digital caliper. Tumor volume was calculated according to the formula: […]. Mice were injected with compounds i.p. daily for 6 days starting on the day when at least one tumor per mouse reached 100 mm^3 in size. Five mice per group were used. For the CWR22R xenograft model, CWR22R cells were inoculated (10^5 cells per inoculum) in 50% matrigel, one site per mouse. Treatment was started when the tumor grew to a size of at least 25 mm^3. Compounds were diluted in captisol (CyDex, Lenexa, Kans.) and delivered intravenously (to reduce “first pass” liver effect) once a day for 5 days. Ten mice per group were used. Mice were monitored daily and tumors were measured every other day. Mice were euthanized according to institutional regulations when the size of tumor reached 1000 mm^3. Comparison of the tumor growth in control and treated mice was done using ANOVA test.
ARTIK compounds, c52 and c85, were also tested in the CWR22R model.

Another data set has as its system C4-2 tumors. Put plainly: C4-2 xenograft model in nude mice. Format: in vivo, mouse. The settings on record: 6 daily i.p. injections, 100xIC50 dose.
Text: as §1, §2
We evaluated the potential anti-tumor effect of the hits using C4-2 and CWR22R xenograft models of androgen-independent PCa in nude mice. Groups of C4-2 tumor-bearing mice (4-5 mice per group, each with two tumors) were given 6 daily i.p. injections of compound (100×IC50 dose) or DMSO vehicle.

The next data set relates to CWR22R cells. The data set can be described thus: Cell cycle distribution by propidium iodide staining. In kind it is cell-based, human. The settings on record: propidium iodide FACS. Here is the method:
Analysis of cell cycle distribution was based on staining of DNA content by propidium iodide. 10^5 cells were removed from culture dishes using trypsin, washed with PBS and resuspended in 300 μl 3% BSA in PBS, followed by addition of […] 70% ethanol. Cells were kept at −20° C. for several hours and then stained with 10 μg/ml propidium iodide in the presence of 30 μg/ml RNase A for 2 hrs at 37° C. DNA content was assessed using a FACS Calibur instrument and CellQuest software (Becton Dickinson, Franklin Lakes, N.J.).
To test this possibility, we assessed the cell cycle distribution of CWR22R cells treated with both categories of compounds. […] Therefore, different subsets of compounds inhibiting AR-dependent transcription in androgen-independent PCa cells cause either growth arrest or apoptosis in these cells. Whether a compound causes growth arrest or apoptosis is not determined by the potency of the compound as an inhibitor of AR-dependent transcription (i.e., FIG. 2B).

For `CCCn1c2ccccc2c2cc(C(C)=O)ccc21` [c52], the “toxicity in mice (visual inspection, gross pathology)” value in the data set with NIH Swiss mice is on record as “generally non-toxic”. Further, in data set [1], the “growth of / toxicity towards non-PCa cells or AR-negative PCa cells (DU145)” value is on record as “no toxicity”. Also, in the data set on CWR22R tumors (among 10 mice, 18 mg/kg/day), the “mice in which tumors completely disappeared” value turned out to be 2 mice, the “mice in which tumors did not grow in size” value stood at 5 mice and the “mice in which tumors regressed” value came out at 1 mouse. Further, the adverse side effects result in the data set with CWR22R tumors (c52 18 mg/kg/day i.v., 5 days) is recorded as “without any noticeable adverse side effects”. Moreover, the CWR22R tumor growth entry with CWR22R tumors (18 mg/kg/day) is “suppressed growth”. In addition, the CWR22R tumor growth result with CWR22R tumors (listed as C52, 18 mg/kg/day) was “effective”. Also, the C4-2 tumor growth result in the data set on C4-2 tumors is reported as “did not”. Besides, the C4-2 tumor growth entry with C4-2 tumors (listed as C52) is recorded as “did not show in vivo efficacy”. Besides, in the data set with CWR22R cells, the “cells with sub-G1 DNA content (apoptotic)” value is given as “appearance of cells with sub-G1 DNA content”.
